Source: publication PMC5607274, “An iterative compound screening contest method for identifying target protein inhibitors using the tyrosine-protein kinase Yes” (Scientific Reports, 2017)

Columns and labels:
[1] = target: T1, human recombinant Yes [a.a. 2–543 (end)] (Homo sapiens, UniProt P07947); experiment: ADP-Glo kinase assay, IC50 determination (dose-response curves) for Yes; format: biochemical; details: for dose-response relationship (DRR): IC50 determination; for "inhibition activity" in the whole range of concentrations: dose-response test, no DRR
T1 construct: human recombinant Yes [a.a; 2–543 (end)]; purchased BPS Bioscience 40488
Method: All inhibitory assays of the phosphorylation activity of Yes were performed in accordance with the Promega Technical Manual for the ADP-Glo™ Kinase Assay (Fitchburg, WI, USA. Catalog number: V9102). The human recombinant Yes [a.a. 2–543 (end)] was purchased from BPS Bioscience (catalog number: 40488). The details of the assay protocol and reagent information are given elsewhere.
The screening was conducted in three steps consisting of the first screening, the second screening, and the IC50 determination, as can be illustrated in Fig. 1b. First, we determined the inhibition rates of the 1,991 compounds. Each compound was placed in 4 wells of a 384-well plate. In total, 80 compounds were assayed on one plate and the other wells were used for positive and negative controls. The compounds were randomly placed on plates so that compounds proposed by one group were not placed on a plate together. A mean of four inhibition rates for each compound was compared to criteria for the first screening. […] Second, the inhibition rates of the screened compounds were determined on one plate using the same procedure of the first screening, where compounds were dissolved from fresh powder. […] Screened compounds were then evaluated for their IC50 values. […]
determine their IC50 values. Each dose-response curve was initially built using 8-point, 2-fold serial dilutions starting at 100 μmol L−1, with each concentration point in 4 […]
Assay was carried out under the same conditions as the primary screening, in summary, the final reagent concentrations were 5.5-nmol L−1 Ye s , 0.013-mmol L−1 ATP, and 0.2-mg mL−1 substrate (poly Glu-Tyr peptides, Glu:Tyr=4:1).
The curves were analyzed by GraphPad Prism (sigmoidal fit with variable slope). IC50 […]
standard deviations of the measurements.

[2] = target: T1, human recombinant Yes [a.a. 2–543 (end)]; experiment: ADP-Glo kinase assay, inhibition rates of Yes phosphorylation activity (first and second screening); format: biochemical; details: 10 μmol L−1 compound; for First screening IR (inhibition rate): mean of n = 4 wells; for Second screening IR (inhibition rate): dissolved from fresh powder, n = 4
Outline: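 ADP-Glo luminescence measured inhibition of human recombinant Yes (a.a. 2–543) phosphorylation activity. In the first screen, each compound ran in 4 wells and inhibition rates were averaged. The second screen retested hits as compounds dissolved from fresh powder.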

T1 sequence (P07947 2-543): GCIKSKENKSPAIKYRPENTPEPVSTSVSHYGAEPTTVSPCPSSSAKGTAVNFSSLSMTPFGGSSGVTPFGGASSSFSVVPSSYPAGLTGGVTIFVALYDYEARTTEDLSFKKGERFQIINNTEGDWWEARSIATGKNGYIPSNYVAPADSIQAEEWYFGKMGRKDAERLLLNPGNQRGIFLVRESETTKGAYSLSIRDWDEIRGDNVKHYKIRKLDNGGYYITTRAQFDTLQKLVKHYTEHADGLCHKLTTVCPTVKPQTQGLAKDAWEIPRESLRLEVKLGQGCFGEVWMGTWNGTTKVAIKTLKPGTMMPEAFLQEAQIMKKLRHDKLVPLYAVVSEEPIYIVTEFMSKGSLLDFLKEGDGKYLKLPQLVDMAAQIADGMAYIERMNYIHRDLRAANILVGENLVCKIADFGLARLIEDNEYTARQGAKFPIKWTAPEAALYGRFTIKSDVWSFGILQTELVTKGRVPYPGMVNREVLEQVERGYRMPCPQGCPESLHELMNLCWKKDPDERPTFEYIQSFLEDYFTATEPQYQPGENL

First screening IR (inhibition rate) [2] | other results | Structure (SMILES)
67% | dose-response relationship (DRR) [1]: did not reveal a DRR; "inhibition activity" in the whole range of concentrations [1]: around 50%; Second screening IR (inhibition rate) [2]: 55% | Fc1ccc(-c2cc3ncnc(N/N=C/c4ccncc4)c3s2)cc1 [Compound Z50080378]
29% | dose-response relationship (DRR) [1]: did not reveal a DRR; "inhibition activity" in the whole range of concentrations [1]: around 50%; Second screening IR (inhibition rate) [2]: 49% | CCCC(C)c1cc(NC(=O)c2ccc(N3CCNC3=O)cc2)n[nH]1 (centres unmarked) [Compound Z1283491630]
3% | – | O=S1(=O)C=CC(Br)C1 (centres unmarked) [Compound Z56764753]
2% | – | O=C(NCCCn1ccnc1)/C(=C/c1ccc(-c2cccc(Cl)c2)o1)NC(=O)c1ccccc1 [Compound Z57239426]
5% | – | CC(=O)[C@@H]1C[C@H](CC(=O)NCCc2ccn(-c3ccc(F)cc3)n2)C1(C)C [Compound Z1675157483]
7% | – | COC(=O)Nc1ccc(NC(=O)C2CC2c2ccc(C(C)C)cc2)cc1F (centres unmarked) [Compound Z1646916001]
27% | – | NS(=O)(=O)c1ccc2nc(-c3ccc4c(c3)-c3ccccc3C4)cn2c1 [Compound Z82176567]
-1% | – | Nc1nccnc1C(=O)Nc1ncc(Cc2cc(F)cc(F)c2)s1 [Compound Z281652038]
-20% | – | CCCCCn1c(-c2ccc(Sc3ccc(C)cc3)c([N+](=O)[O-])c2)nc2c1c(=O)[nH]c(=O)n2CCCC [Compound Z50141536]
-11% | – | CCN(C(=O)c1cc(-c2ccccc2)nc2c1cnn2Cc1cccnc1)c1ccccc1 [Compound Z238053762]
-1% | – | COc1cccc(OCCN2CCN(c3cc(C(C)(C)C)nc4c(-c5ccc(F)cc5)c(C)nn34)CC2)c1 [Compound Z439257332]
0% | – | O=C(O)c1cnc(/C=C/c2cccnc2)s1 [Compound Z1021595256]
14% | – | CCCn1c(/C(Cl)=C/c2ccc(F)c(F)c2)nc2cc(S(=O)(=O)N3CCOCC3)ccc21 [Compound Z95254533]
-13% | – | CCn1c(-c2ccccc2)c(C(=O)CSc2nnc(-c3cccnc3)n2N)c2ccccc21 [Compound Z54072868]
3% | – | CNc1nc(NC2CCOC2c2ccc(F)c(F)c2)ncc1Br (centres unmarked) [Compound Z1765170433]
6% | – | CC(=O)Nc1ccc(Nc2cc(C(C)(C)C)nc3c(-c4ccccc4Cl)c(C)nn23)cc1 [Compound Z1172235206]
-5% | – | Cc1cccc(C(C)C)c1NC(=O)CSc1nc2ccc(Cl)cc2c(=O)n1CC(C)C [Compound Z16658902]
10% | – | Cc1nc(-c2ccc(C(=O)OCCCn3cccn3)cc2)n[nH]1 [Compound Z1417129003]
7% | – | CN(c1cc(C#N)ccn1)S(=O)(=O)c1ccccc1S(C)(=O)=O [Compound Z1833478806]
33% | – | CCN(C(=O)CN(C)CC(=O)Nc1ccc(Cl)cc1)c1cccc2ccccc12 [Compound Z46378572]

First screening IR (inhibition rate) [2] | other results | Structure (SMILES)
0% | – | CCCCCCCCN1C(=O)/C(=C/c2c(NCCCN3CCOCC3)nc3c(C)cccn3c2=O)SC1=S [Compound Z56863983]
0% | – | O=C(Nc1ccc(F)cc1)c1nnc(CSc2ncc(-c3ccccc3)[nH]2)s1 [Compound Z325218452]
7% | – | Cc1cc(C(=O)Nc2ccc(N3CCNC(=O)C3)c(Cl)c2)c2ccccc2n1 [Compound Z421986674]
-1% | – | Cc1ccc(S(=O)(=O)C2CS(=O)(=O)CC2O)c(C)c1 (centres unmarked) [Compound Z1549639934]
7% | – | CC(C)(C)C1CCC(C(=O)N2CCC(C(=O)N3CCCCCC3)CC2)CC1 (centres unmarked) [Compound Z191288442]
-2% | – | CC1C/C(=C/c2ccc(C#N)cc2)c2nc3ccccc3c(C(=O)O)c2C1 (centres unmarked) [Compound Z46107862]
-11% | – | c1ccc(-n2ncc3c2CCNC3)cc1 [Compound Z409420032]
0% | – | CCC(C)NC(=O)c1ccc2c(=O)n(CC(C)C)c3nnc(SCC(=O)Nc4cccc(C)c4)n3c2c1 (centres unmarked) [Compound Z1157725046]
13% | – | COc1cc(/C=N/Nc2ncnc3scc(-c4ccccc4)c23)ccc1O [Compound Z49889617]
-2% | – | Cc1cc(COC(=O)c2cc(-c3cccs3)nc3c2cnn3C(C)C)no1 [Compound Z215601214]
-6% | – | NS(=O)(=O)c1ccc(S(=O)(=O)N2CCCC2)cc1 [Compound Z45415601]
3% | – | CSc1sc(NC(=O)c2n[nH]c(C(C)C)c2Br)nc1C [Compound Z1143428685]
0% | – | COc1cc(Br)c(S(=O)(=O)N(C)C(=O)C2CC2)cc1OC [Compound Z643690740]
7% | – | CN(C)S(=O)(=O)c1cccc(S(=O)(=O)c2cccc(S(=O)(=O)N(C)C)c2)c1 [Compound Z56877233]
7% | – | COCCCCCn1ncc2ccc([N+](=O)[O-])cc21 [Compound Z1271542350]
22% | – | FC(F)(F)c1ccnc(Nc2ccc3nc(N4CCCC4)sc3c2)n1 [Compound Z318995726]
-5% | – | O=C1C(=O)N(CCCn2ccnc2)C(c2ccc(F)cc2)/C1=C(\O)c1ccc(Cl)cc1 (centres unmarked) [Compound Z57239976]
2% | – | Cc1ccc(Cn2c(=O)c3ccccc3n3c(CCC(=O)NCCCN4CCOCC4)nnc23)cc1 [Compound Z1169067737]
43% | – | Fc1ccc(-c2cc(-c3ccc(Cl)cc3)c3ccccc3n2)cc1 [Compound Z1270166647]
4% | – | C=CCn1c(SCc2cc(=O)n3ccsc3n2)nnc1-c1ccncc1 [Compound Z24172012]

First screening IR (inhibition rate) [2] | other results | Structure (SMILES)
9% | – | Cc1nc(N(C)C(C)c2ccc([S+](C)[O-])cc2)c2cnn(C)c2n1 (centres unmarked) [Compound Z1324037636]
-4% | – | O=C(Nc1nc2c(s1)CN(Cc1ccccc1)CC2)c1cc2c(nc3sccn32)s1 [Compound Z68435865]
9% | – | CC1(CCc2ccccc2)NC(=O)N(NC(=O)c2ccc(-n3cnc4ccccc43)cc2)C1=O (centres unmarked) [Compound Z136752996]
14% | – | CS(=O)(=O)C1(S(C)(=O)=O)CCCCC1 [Compound Z56758188]
-3% | – | Cc1cc(NC(=O)c2cc(-c3cccs3)on2)n(CCC#N)n1 [Compound Z908095506]
4% | – | Cn1ncc2c(N3CCN(CC[S+]([O-])c4cc(Cl)ccc4Cl)CC3)ncnc21 (centres unmarked) [Compound Z445169626]
9% | – | CN1CCC(N(c2ccccc2)S(=O)(=O)c2cc(Cl)cc3c2OCC3)CC1 [Compound Z1833465604]
8% | – | CCCCN(C)c1ccc(S(C)(=O)=O)cc1S(C)(=O)=O [Compound Z199538358]
11% | – | CN(C)S(=O)(=O)c1ccc(S(N)(=O)=O)cc1 [Compound Z45415603]
-8% | – | COC(=O)Cn1ncc2c(NCCCc3cccc(F)c3)ncnc21 [Compound Z1220626900]
15% | – | Cc1cnc(CCSc2ncc(-c3ccc(F)cc3)o2)cn1 [Compound Z1688195829]
3% | – | Cc1sc2ncnc(N/N=C/c3ccncc3)c2c1C [Compound Z49890729]
-28% | – | O=C(NCCCN1CCCCC1)c1cc(-c2ccccc2)nc2c1cnn2Cc1ccncc1 [Compound Z167254296]
-12% | – | Cl.Fc1c(-c2ccccc2)nc2ccc(Cl)cc2c1-c1ccccc1 [Compound Z223042638]
-2% | – | c1cncc(-c2nc(SCc3nc4ccccc4o3)n[nH]2)c1 [Compound Z1095448120]
4% | – | COc1ccc(C(N)=O)c(OCc2cc(C)cc(C)c2)c1 [Compound Z165885974]
-3% | – | CC(=O)c1ccc(-c2ccc(C(=O)Nc3cc(F)ccc3C)o2)cc1 [Compound Z30903878]
21% | – | FC(F)(F)c1ccnc(Nc2ccc3c(c2)OCO3)n1 [Compound Z285674740]
13% | – | CNC1CCN(C(=O)c2ccc3c(c2)ncn3C(C)C)C1.Cl.Cl (centres unmarked) [Compound Z1455845707]
